The values that follow are results of earlier work, collected in US20120028943A1, “Medicinal Cream Made Using Fluticasone Propionate And Chitosan And A Process To Make The Same” (APEX LABORATORIES PRIVATE LIMITED, priority 2009, published 2012).

Series [1] deals with human plasma proteins. The conditions noted are these: averaged.
Series [2] deals with erythrocytes.
Series [3] concerns the target cytochrome P450 3A4 (Homo sapiens, UniProt P08684). The conditions noted are these: liver.
The subject of series [4] is HPA (hypothalamic-pituitary-adrenal)-axis. The conditions noted are these: after dermal administration.
In series [5] the target is T1, human glucocorticoid receptors (Homo sapiens, UniProt P04150).
T1 sequence (P04150 1-777): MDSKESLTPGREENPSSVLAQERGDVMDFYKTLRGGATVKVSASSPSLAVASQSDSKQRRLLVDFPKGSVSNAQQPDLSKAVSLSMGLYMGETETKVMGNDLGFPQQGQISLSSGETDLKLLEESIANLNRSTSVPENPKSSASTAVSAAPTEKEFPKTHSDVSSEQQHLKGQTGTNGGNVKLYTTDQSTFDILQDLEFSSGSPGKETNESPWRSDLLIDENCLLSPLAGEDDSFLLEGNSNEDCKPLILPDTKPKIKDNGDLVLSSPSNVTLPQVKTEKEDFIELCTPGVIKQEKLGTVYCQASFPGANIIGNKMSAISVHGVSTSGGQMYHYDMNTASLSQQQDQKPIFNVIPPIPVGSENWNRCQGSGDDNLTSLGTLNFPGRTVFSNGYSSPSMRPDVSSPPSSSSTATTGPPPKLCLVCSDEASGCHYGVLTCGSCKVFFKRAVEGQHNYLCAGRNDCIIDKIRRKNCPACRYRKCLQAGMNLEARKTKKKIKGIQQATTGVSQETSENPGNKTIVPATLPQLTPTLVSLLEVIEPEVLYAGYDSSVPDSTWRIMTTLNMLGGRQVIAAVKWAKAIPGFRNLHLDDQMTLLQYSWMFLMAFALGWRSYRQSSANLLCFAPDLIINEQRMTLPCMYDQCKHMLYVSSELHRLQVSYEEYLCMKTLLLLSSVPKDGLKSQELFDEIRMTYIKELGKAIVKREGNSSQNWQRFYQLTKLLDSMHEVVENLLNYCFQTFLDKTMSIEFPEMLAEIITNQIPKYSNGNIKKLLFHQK
Particulars: in vitro.

The target of series [6] is T2, human transcortin (Homo sapiens, UniProt P08185).
T2 sequence (P08185 23-405): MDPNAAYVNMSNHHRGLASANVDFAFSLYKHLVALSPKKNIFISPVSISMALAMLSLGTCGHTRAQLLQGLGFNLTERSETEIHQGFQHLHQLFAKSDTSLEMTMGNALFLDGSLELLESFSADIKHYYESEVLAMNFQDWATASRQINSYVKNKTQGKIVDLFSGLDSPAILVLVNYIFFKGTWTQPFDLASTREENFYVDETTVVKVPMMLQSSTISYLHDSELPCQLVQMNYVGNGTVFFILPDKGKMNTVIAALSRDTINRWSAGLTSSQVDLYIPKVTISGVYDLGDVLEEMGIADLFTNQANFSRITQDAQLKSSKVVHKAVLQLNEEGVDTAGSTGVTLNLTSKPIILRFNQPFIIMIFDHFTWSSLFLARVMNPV

In series [7] the target is T1, human glucocorticoid receptors.
Assay in series [8]: not given
The source holds these as a separate data set.

Chain of cytochrome P450 3A4 (P08684 whole entry): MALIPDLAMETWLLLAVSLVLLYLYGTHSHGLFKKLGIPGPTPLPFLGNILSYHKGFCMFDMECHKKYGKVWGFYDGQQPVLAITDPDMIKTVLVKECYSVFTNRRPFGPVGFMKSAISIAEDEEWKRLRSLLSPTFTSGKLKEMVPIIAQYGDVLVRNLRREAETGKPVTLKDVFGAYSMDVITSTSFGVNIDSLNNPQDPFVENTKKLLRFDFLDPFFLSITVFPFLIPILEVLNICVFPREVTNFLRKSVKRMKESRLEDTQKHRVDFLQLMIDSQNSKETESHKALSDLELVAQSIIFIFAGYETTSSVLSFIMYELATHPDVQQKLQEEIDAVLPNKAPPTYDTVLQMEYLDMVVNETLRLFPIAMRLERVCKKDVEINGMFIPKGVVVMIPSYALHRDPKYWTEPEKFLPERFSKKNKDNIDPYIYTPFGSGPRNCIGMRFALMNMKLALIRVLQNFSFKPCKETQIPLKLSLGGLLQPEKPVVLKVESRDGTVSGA

Take `CCC(=O)O[C@]1(C(=O)SCF)[C@H](C)C[C@H]2[C@@H]3C[C@H](F)C4=CC(=O)C=C[C@]4(C)[C@@]3(F)[C@@H](O)C[C@@]21C` [Fluticasone propionate, S-(fluoromethyl)6α,9-difluoro-11β-17-dihydroxy-16α-methyl-3-oxoandrosta-1,4-diene-17β-carbothioate, 17-propionate]: the topical anti-inflammatory potency result is listed as “high”. The “percentage bound to human plasma proteins” value in series [1] was 91%. Besides, the binding to erythrocytes entry in series [2] is “weakly and reversibly bound”. Besides, in [3], the metabolism result is “metabolized in the liver by cytochrome P450 3A4-mediated hydrolysis”. The HPA-axis suppressive activity result in series [4] was “low”. Also, the “agonist activity at human glucocorticoid receptors” value in series [5] is on record as “agonist activity”. Besides, the “binding to human transcortin” value in series [6] is recorded as “not significantly hound”. The “selectivity to the glucocorticoid receptor” value in series [7] is on record as “high degree of selectivity”. Besides, the “affinity for human glucocorticoid receptors” value in series [7] (in vitro) is on record as “strong affinity”. In addition, in [8] (95% ethanol), the “solubility in 95% ethanol” value was “slightly soluble”. In series [8] (dimethyl sulfoxide), the “solubility in dimethyl sulfoxide” value is recorded as “freely soluble”. Further, the solubility in dimethylformamide entry in [8] (dimethylformamide) is listed as “freely soluble”. Also, in [8] (methanol), the solubility in methanol entry is on record as “slightly soluble”. Further, the solubility in water entry in series [8] (water) is reported as “practically insoluble”.
